Biological target: T1, FLuc-C-HiBiT (Photinus pyralis, UniProt P08659)
T1 construct: firefly luciferase with C-terminal HiBiT tag, E. coli expressed
Assay: biochemical
Details: enzyme activity, 10 uM ATP; read-out: IC50 or SDR50 (mM) / FLuc E

T1 sequence (P08659 whole entry, looked up): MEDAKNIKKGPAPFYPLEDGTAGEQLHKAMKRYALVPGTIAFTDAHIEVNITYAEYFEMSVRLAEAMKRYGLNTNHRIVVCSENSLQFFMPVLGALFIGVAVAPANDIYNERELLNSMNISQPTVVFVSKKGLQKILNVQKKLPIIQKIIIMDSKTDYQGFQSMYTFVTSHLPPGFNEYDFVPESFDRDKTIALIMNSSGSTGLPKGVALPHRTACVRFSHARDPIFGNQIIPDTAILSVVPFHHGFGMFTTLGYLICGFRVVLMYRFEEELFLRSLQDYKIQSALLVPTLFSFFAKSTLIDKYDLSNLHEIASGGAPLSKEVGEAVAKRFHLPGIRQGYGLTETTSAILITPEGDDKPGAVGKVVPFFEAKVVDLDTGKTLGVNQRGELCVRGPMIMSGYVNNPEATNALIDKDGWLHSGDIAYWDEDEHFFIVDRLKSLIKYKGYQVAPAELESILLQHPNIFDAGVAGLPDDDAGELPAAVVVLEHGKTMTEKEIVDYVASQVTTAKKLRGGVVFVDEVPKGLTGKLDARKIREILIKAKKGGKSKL

IC50 [mM] | SMILES
0.0124 | C[C@H](C(=O)NCCN1CCOCC1)C1CC[C@@]2(C)Cc3sc(CSc4ccccc4)nc3[C@@H](C)[C@@H]2[C@H]1O (stereo partly drawn) [NCGC00398276-01]
0.00989 | COc1ccc(-c2ccc3c(c2)C(=O)N2CC[C@H](NC(=O)c4cccc(F)c4)[C@H]2C(=O)N3)cc1 [NCGC00399389-01]
0.00881 | CC(C)c1ccc(NC(=O)O[C@@H]2CO[C@H]3[C@@H]2OC[C@@H]3N[S+](=O)([O-])c2cccs2)cc1 [NCGC00399549-01]
0.00286 | CCNC(=O)N[C@@H]1C=C[C@@H](c2c(C)nn(-c3ccc(C(C)C)cc3)c2C)C1 [NCGC00399948-01]
0.018 | Cc1nn(-c2ccc(C(C)C)cc2)c(C)c1[C@@H]1C=C[C@@H](NC(=O)NC(C)C)C1 [NCGC00399949-01]
0.0143 | Cc1ccc(-n2nc(C)c([C@@H]3C=C[C@@H](NC(=O)NC(C)C)C3)c2C)cc1Cl [NCGC00399958-01]
0.018 | Cc1ccc(-n2nc(C)c([C@@H]3C=C[C@@H](NC(=O)NCc4ccccc4)C3)c2C)cc1Cl [NCGC00399961-01]
0.00989 | Cc1ccc(-n2nc(C)c([C@@H]3C=C[C@@H](NC(=O)Nc4ccc(Cl)cc4)C3)c2C)cc1Cl [NCGC00400070-01]
0.0202 | Cc1nn(-c2ccc(C(C)(C)C)cc2)c(C)c1[C@@H]1C=C[C@@H](NC(=O)CCCC(=O)O)C1 [NCGC00400254-01]
0.0202 | Cc1nn(-c2ccc(C(C)(C)C)cc2)c(C)c1[C@@H]1C=C[C@@H](NC(=O)COCC(=O)O)C1 [NCGC00400262-01]
0.018 | COc1ccc(-n2nc(C)c([C@@H]3C=C[C@@H](NC(=O)Nc4cccc(C#N)c4)C3)c2C)cc1 [NCGC00400336-01]
0.0161 | CC(=O)N[C@@H]1C=C[C@@H](c2c(C)nn(-c3ccc(C(F)(F)F)cc3)c2C)C1 [NCGC00400353-01]
0.0143 | COc1ccc(CN2C[C@H](O)C[C@H]2c2nc(-c3ccc(OC)cc3)no2)cc1 [NCGC00400669-01]
0.0202 | COc1ccc(-c2noc([C@@H]3C[C@@H](O)CN3Cc3cccs3)n2)cc1 [NCGC00400674-01]
0.0161 | COc1ccc(-c2noc([C@@H]3C[C@@H](O)CN3Cc3cc4ccccc4o3)n2)cc1 [NCGC00400688-01]
0.0111 | CN1C[C@@H](N[S+](=O)([O-])c2ccc(C#N)cc2)C[C@H]1c1nc(-c2ccc(Cl)cc2)no1 [NCGC00400957-01]
0.00453 | CSCC(=O)Nc1nc2c(s1)C[C@]1(C)CC[C@@H]3[C@H](OC(=O)[C@H]3C)[C@H]1[C@@H]2C [NCGC00401416-01]
0.00197 | C[C@H](C(=O)N1CCCC1)C1CC[C@@]2(C)Cc3sc(-c4ccccc4)nc3[C@@H](C)[C@@H]2[C@H]1O (stereo partly drawn) [NCGC00401417-01]
0.00057 | C[C@@H]1C(=O)O[C@H]2[C@H]1CC[C@@]1(C)Cc3sc(NC(=O)c4ccncc4)nc3[C@@H](C)[C@H]21 [NCGC00401418-01]
0.0111 | CN(Cc1ccccc1)C(=O)[C@H]1C[C@@H](O)[C@H](O)[C@@H]2N=C(Nc3ccc(-n4cccn4)cc3)S[C@@H]21 [NCGC00401585-01]
> 0.03 | Cc1nn(-c2cccc(Br)c2)c(C)c1[C@@H]1C=C[C@@H](NC(=O)CC(C)(C)CC(=O)O)C1 [NCGC00401591-01]
0.0111 | COc1ccc(C(=O)N[C@@H]2CN(C(=O)Nc3ccc(OC(F)(F)F)cc3)CCC[C@H]2O)cc1 [NCGC00401608-01]
> 0.03 | Cc1ccc(-n2nc(C)c([C@H]3C=C[C@@H](OC(=O)Nc4cccc(C(F)(F)F)c4)C3)c2C)cc1Cl [NCGC00401611-01]
> 0.03 | Cc1ccc(-n2nc(C)c([C@@H]3C=C[C@@H](NC(=O)COCC(=O)O)C3)c2C)cc1Cl [NCGC00401616-01]
0.0202 | Cc1nn(-c2ccc(C(C)C)cc2)c(C)c1[C@@H]1C=C[C@@H](NC(=O)COCC(=O)O)C1 [NCGC00401626-01]
0.0202 | Cc1ccc(-c2noc([C@@H]3Cc4[nH]cnc4CN3C(=O)Nc3cccc(F)c3)n2)cc1 [NCGC00401633-01]

IC50 [mM] | SMILES
> 0.03 | COc1ccc(-c2noc([C@@H]3Cc4[nH]cnc4CN3C(=O)Nc3ccc(Cl)cc3)n2)cc1 [NCGC00401634-01]
0.00111 | Cc1cc(-c2nc3cc(F)ccc3s2)ccc1N [NCGC00402259-04]
0.018 | O=C1Cc2c(-c3cccc4ccccc34)n[nH]c2CN1CCOc1ccccc1 [NCGC00409142-01]
0.0202 | COc1cccc(-c2csc(CN3CCCC(C)(NC(C)=O)C3)c2)c1 (stereo not drawn) [NCGC00410342-01]
0.0202 | COc1ccc(-c2ccc(CN3CC(C)(NC(C)=O)C3)s2)cn1 [NCGC00410343-01]
0.0202 | CC1(NC(=O)C2CC2)CN(Cc2nc(-c3cccc(F)c3)cs2)C1 [NCGC00410350-01]
0.0255 | CC(=O)NC1(C)CN(Cc2ccc(-c3ccc(Oc4ccccc4)cc3)s2)C1 [NCGC00410351-01]
0.0114 | CC(=O)NC1(C)CCN(Cc2cccc(-c3ccc4ccccc4c3)c2)C1 (stereo not drawn) [NCGC00410355-01]
0.0202 | CC1(NC(=O)C2CC2)CN(Cc2nc(-c3ccccc3)cs2)C1 [NCGC00410376-01]
0.0161 | CC1(NC(=O)C2CC2)CN(Cc2nc(-c3ccccc3OCc3ccccc3)cs2)C1 [NCGC00410379-01]
0.00718 | CC(=O)NC1(C)CCN(Cc2ccc(-c3ccc4c(ccn4C)c3)cc2)C1 (stereo not drawn) [NCGC00410408-01]
0.0101 | CC(=O)NC1(C)CCN(Cc2cccc(-c3ccc4c(ccn4C)c3)c2)C1 (stereo not drawn) [NCGC00410415-01]
0.00286 | CC(=O)NC1(C)CN(Cc2ccc(-c3ccc4c(ccn4C)c3)s2)C1 [NCGC00410429-01]
0.0227 | CC(=O)NC1(C)CN(Cc2ccc(-c3ccccc3OCc3ccccc3)s2)C1 [NCGC00410438-01]
0.0202 | COc1cccc(Nc2ccc(CN3CCC(C)(NC(C)=O)C3)cc2)c1 (stereo not drawn) [NCGC00410471-01]
0.0202 | COCCN1CCNc2cc(-c3cccc(OC)c3)ncc2C1 [NCGC00411013-01]
0.0227 | Oc1cccc(-c2cc3c(cn2)CN(Cc2cccnc2)CCN3)c1 [NCGC00411023-01]
0.018 | COc1cccc(CN2CCNc3cc(-c4ccnc(C)c4)ncc3C2)c1 [NCGC00411029-01]
0.0143 | COc1ccc(-c2cc3c(cn2)CN(Cc2cccnc2)CCN3)cc1F [NCGC00411039-01]
0.018 | Cc1cc(-c2cc3c(cn2)CN(Cc2ccccc2O)CCN3)ccn1 [NCGC00411040-01]
0.018 | OCc1cccc(-c2cc3c(cn2)CN(Cc2ccccc2)CCN3)c1 [NCGC00411045-01]
0.0161 | Cc1cc(-c2cc3c(cn2)CN(Cc2nccn2C)CCN3)ccn1 [NCGC00411046-01]
0.018 | c1cncc(Nc2cc3c(cn2)CN(Cc2cc[nH]n2)CCN3)c1 [NCGC00411048-01]
0.0202 | c1ccc(Nc2cc3c(cn2)CN(CC2CCOC2)CCN3)cc1 (stereo not drawn) [NCGC00411051-01]
0.0161 | Oc1ccccc1CN1CCNc2cc(-c3ccccc3)ncc2C1 [NCGC00411063-01]
0.0285 | CC(=O)N1CCNc2cc(-c3ccccc3F)ncc2C1 [NCGC00411070-01]

IC50 [mM] | SMILES
0.018 | COc1ccc(CN2CCNc3cc(Nc4ccccc4)ncc3C2)cn1 [NCGC00411080-01]
0.0057 | CC(=O)N1CCNc2cc(Nc3ccc(F)cc3)ncc2C1 [NCGC00411083-01]
0.0143 | c1ccc(Nc2cc3c(cn2)CN(Cc2ccsc2)CCN3)cc1 [NCGC00411091-01]
0.0128 | Clc1cccc(Nc2cc3c(cn2)CN(Cc2cccnc2)CCN3)c1 [NCGC00411094-01]
0.00904 | COc1cccc(Nc2cc3c(cn2)CN(C(C)=O)CCN3)c1 [NCGC00411096-01]
0.0161 | Clc1ccc(-c2cc3c(cn2)CN(Cc2ccncc2)CCN3)cc1 [NCGC00411101-01]
0.0143 | COc1ccc(-c2cc3c(cn2)CN(Cc2cccnc2)CCN3)cc1OC [NCGC00411110-01]
0.0161 | c1ccc(Nc2cc3c(cn2)CN(Cc2cc[nH]n2)CCN3)cc1 [NCGC00411115-01]
0.018 | COCCN1CCNc2cc(Nc3cccc(OC)c3)ncc2C1 [NCGC00411124-01]
0.0128 | COc1ccc(-c2cc3c(cn2)CN(C(C)=O)CCN3)cc1 [NCGC00411126-01]
0.0161 | Cn1ccnc1CN1CCNc2cc(Nc3ccccc3)ncc2C1 [NCGC00411128-01]
0.0101 | COc1cccc(Nc2cc3c(cn2)CN(Cc2cccnc2)CCN3)c1 [NCGC00411131-01]
0.0161 | CC(=O)Nc1cccc(-c2cc3c(cn2)CN(Cc2ccccc2)CCN3)c1 [NCGC00411143-01]
0.018 | Cc1cc(-c2cc3c(cn2)CN(Cc2c[nH]cn2)CCN3)ccn1 [NCGC00411148-01]
0.0202 | Cc1cc(-c2cc3c(cn2)CN(Cc2ccccn2)CCN3)ccn1 [NCGC00411150-01]
0.0161 | COc1ccc(-c2cc3c(cn2)CN(Cc2ccncc2)CCN3)cc1 [NCGC00411159-01]
0.018 | COc1cccc(CN2CCNc3cc(Nc4ccccc4)ncc3C2)c1 [NCGC00411172-01]
0.0114 | Cc1cc(-c2cc3c(cn2)CN(Cc2cccs2)CCN3)ccn1 [NCGC00411196-01]
0.0124 | Oc1ccccc1CN1CCNc2cc(Nc3ccccc3)ncc2C1 [NCGC00411199-02]
0.018 | COc1cccc(CN2CCNc3cc(Nc4cccnc4)ncc3C2)c1 [NCGC00411206-01]
0.0202 | COc1ccc(CN2CCNc3cc(-c4ccccc4)ncc3C2)cn1 [NCGC00411207-01]
0.0161 | COCCN1CCNc2cc(-c3cccc(N(C)C)c3)ncc2C1 [NCGC00411224-01]
0.018 | Cc1nc[nH]c1CN1CCNc2cc(Nc3ccccc3)ncc2C1 [NCGC00411231-01]
0.0202 | NC(=O)c1cccc(-c2cc3c(cn2)CN(Cc2ccccc2)CCN3)c1 [NCGC00411232-01]
0.0161 | CC(=O)N1CCNc2cc(Nc3cccc(N(C)C)c3)ncc2C1 [NCGC00411238-01]

SMILES | IC50 [mM]
CC(C)CN1CCNc2cc(-c3ccccc3)ncc2C1 [NCGC00411061-01] | 0.0226
COc1cccc(Nc2cc3c(cn2)CN(C)CCN3)c1 [NCGC00411064-01] | 0.0226
Cc1cc(-c2cc3c(cn2)CN(CC(C)C)CCN3)ccn1 [NCGC00411077-01] | 0.0161
CN1CCNc2cc(-c3ccc([S+](C)(=O)[O-])cc3)ncc2C1 [NCGC00411079-01] | > 0.03
